Publication PMC8869358, “High-Throughput Chemical Screening and Structure-Based Models to Predict hERG Inhibition” (Biology, 2022)
Structures can show the parent of a compound that is named as a salt.

Biological target: hERG (Homo sapiens, UniProt Q12809)
Test: cell-based
Settings: (-LOG10(IC50), µM)

Sequence of hERG (Q12809 whole entry): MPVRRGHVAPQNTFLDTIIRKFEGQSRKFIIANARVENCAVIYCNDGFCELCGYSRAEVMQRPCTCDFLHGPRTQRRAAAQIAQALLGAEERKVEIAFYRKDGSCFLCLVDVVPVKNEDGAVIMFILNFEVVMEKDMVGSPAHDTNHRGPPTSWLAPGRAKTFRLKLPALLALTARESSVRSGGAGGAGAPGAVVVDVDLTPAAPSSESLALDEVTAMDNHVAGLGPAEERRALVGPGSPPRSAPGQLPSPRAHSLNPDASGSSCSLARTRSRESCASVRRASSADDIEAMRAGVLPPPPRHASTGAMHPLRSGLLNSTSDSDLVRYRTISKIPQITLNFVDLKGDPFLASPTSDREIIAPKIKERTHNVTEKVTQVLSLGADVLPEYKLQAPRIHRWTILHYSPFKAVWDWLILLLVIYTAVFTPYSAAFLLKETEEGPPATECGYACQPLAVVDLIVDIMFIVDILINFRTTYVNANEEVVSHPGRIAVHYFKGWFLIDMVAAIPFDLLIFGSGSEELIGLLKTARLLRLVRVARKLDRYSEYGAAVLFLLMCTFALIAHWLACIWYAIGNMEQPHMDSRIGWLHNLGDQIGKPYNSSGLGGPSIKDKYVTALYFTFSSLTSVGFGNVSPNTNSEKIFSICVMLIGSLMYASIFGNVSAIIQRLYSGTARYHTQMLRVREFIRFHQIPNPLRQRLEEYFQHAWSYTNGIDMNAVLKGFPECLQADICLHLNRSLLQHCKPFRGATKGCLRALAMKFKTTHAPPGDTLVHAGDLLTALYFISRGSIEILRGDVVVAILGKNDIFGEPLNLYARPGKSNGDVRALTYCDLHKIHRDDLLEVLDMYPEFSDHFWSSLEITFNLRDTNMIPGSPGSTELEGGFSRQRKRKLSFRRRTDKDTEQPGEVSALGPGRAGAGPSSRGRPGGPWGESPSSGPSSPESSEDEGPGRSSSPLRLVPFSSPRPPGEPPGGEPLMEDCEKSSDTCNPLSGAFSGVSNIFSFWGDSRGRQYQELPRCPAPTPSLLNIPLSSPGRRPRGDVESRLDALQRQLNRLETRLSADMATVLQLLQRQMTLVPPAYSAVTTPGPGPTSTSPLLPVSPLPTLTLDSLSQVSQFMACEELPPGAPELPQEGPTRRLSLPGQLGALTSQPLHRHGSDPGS

SMILES	IC50
c1ccc(C(O[C@H]2CCCN(CCc3ccc4c(c3)OCO4)C2)c2ccccc2)cc1 [Zamifenacin fumarate]	0.535 µM
CCOC(=O)C(O)(c1ccc(Cl)cc1)c1ccc(Cl)cc1 [Chlorobenzilate]	33.7 µM
OC(c1ccc(Cl)cc1)(c1ccc(Cl)cc1)C(Cl)(Cl)Cl [Dicofol]	30.9 µM
C#CCN(C)CCCOc1ccc(Cl)cc1Cl [N-Methyl-N-propargyl-3-(2,4-dichlorophenoxy)propylamine hydrochloride]	8.82 µM
CCC(OC(C)=O)C(C[C@H](C)NC)(c1ccccc1)c1ccccc1 (mixture of isomers) [L-Î±lpha-Noracetylmethadol hydrochloride]	7.53 µM
CCC(COC(=O)c1cc(OC)c(OC)c(OC)c1)(c1ccccc1)N(C)C (centres unmarked) [Trimebutine maleate]	16.9 µM
Oc1ccc2[nH]cc(CCCCN3CC=C(c4ccccc4)CC3)c2c1 [Roxindole]	3.38 µM
COc1cc(C(=O)OCCCN2CCCN(CCCOC(=O)c3cc(OC)c(OC)c(OC)c3)CC2)cc(OC)c1OC [Dilazep]	6.01 µM
CC(C)(C)c1cccc(C(C)(C)C)c1O [2,6-Di-tert-butylphenol]	19.8 µM
N=C(N/N=C/c1ccc(Cl)cc1)N/N=C/c1ccc(Cl)cc1 [Robenidine]	1.69 µM
COc1ccc(CCN(C)CCCN2CCc3cc(OC)c(OC)cc3CC2=O)cc1OC [Zatebradine hydrochloride]	10.1 µM
O=C1CN=C(c2ccccc2)c2cc(Cl)ccc2N1CC1CC1 [Prazepam]	23 µM
COc1ccc(C(=O)c2ccccc2)c(O)c1 [2-Hydroxy-4-methoxybenzophenone]	43.6 µM
CC(CCc1ccccc1)NC(C)C(O)c1ccc(O)cc1 (centres unmarked) [Nylidrin]	5.56 µM
Cc1ccsc1/C=C/C1=NCCCN1C [Morantel tartrate]	19.7 µM
CCOC(=O)COc1cc(-c2nn(C)c(OC(F)F)c2Cl)c(F)cc1Cl [Pyraflufen-ethyl]	33.4 µM

SMILES	IC50
Cc1cc(Cc2cc(C)cc(C(C)(C)C)c2O)c(O)c(C(C)(C)C)c1 [2,2'-Methylenebis(4-methyl-6-tert-butylphenol)]	31.1 µM
COc1ccccc1N1CCN(CC(O)COc2cccc3ccccc23)CC1 (centres unmarked) [Naftopidil]	1.69 µM
CCCCCCCCCCCCCCCCCC[n+]1ccn(C)c1 [1-Methyl-3-octadecylimidazolium hexafluorophosphate]	4.02 µM
CCOC(=O)C1=NOC(c2ccccc2)(c2ccccc2)C1 [Ethyl 5,5-diphenyl-2-isoxazoline-3-carboxylate]	36.7 µM
CCCC(C(=O)OCCN(CC)CC)(c1ccccc1)c1ccccc1 [Proadifen hydrochloride]	7.28 µM
Cc1cc(-c2ccc(N=Nc3cc(S(=O)(=O)O)c4ccccc4c3N)c(C)c2)ccc1N=Nc1cc(S(=O)(=O)O)c2ccccc2c1N [C.I. Direct Red 2]	21.2 µM
CN1CCN(C2=Nc3ccccc3Sc3ccc(Cl)cc32)CC1 [Clothiapine]	21.3 µM
COC1CC(=C(c2cccs2)c2cccs2)C[N+](C)(C)C1 (centres unmarked) [Timepidium bromide]	19.7 µM
COc1ccc(C(=O)c2ccc(C)cc2)c(O)c1 [Mexenone]	45.9 µM
ClC(Cl)(Cl)c1ccc(C(Cl)(Cl)Cl)cc1 [1,4-Bis(trichloromethyl)benzene]	14.2 µM
CCCCCCCCCCCCCC[P+](CCCCCC)(CCCCCC)CCCCCC [Trihexyltetradecylphosphonium bromide]	0.44 µM
CC(=O)OC1(c2ccccc2)CCN(CCc2ccccc2)CC1 [1-(2-Phenylethyl)-4-phenyl-4-acetoxypiperidine]	22.4 µM
Cc1ccc(C=C2C(=O)C3(C)CCC2C3(C)C)cc1 (centres unmarked) [Enzacamene]	30.7 µM
CC1COC(Cn2cncn2)(c2ccc(Oc3ccc(Cl)cc3)cc2Cl)O1 (centres unmarked) [Difenoconazole]	22.7 µM
Cn1c(-c2ccccc2)cc(-c2ccccc2)[n+]1C [Difenzoquat metilsulfate]	34.7 µM
CCCCCCCCC=CCCCCCCCC1=NCCN1CCO [2-(8-Heptadecenyl)-2-imidazoline-1-ethanol]	11.8 µM
